Experimental data reported in patent publication US20250302882A1, “PHARMACEUTICAL COMPOSITION FOR PREVENTING OR TREATING NEURODEGENERATIVE DISEASE, CONTAINING, AS ACTIVE INGREDIENTS, CYCLODEXTRIN AND STEM CELLS IN WHICH VEGF IS OVEREXPRESSED” (KYUNGPOOK NATIONAL UNIVERSITY INDUSTRY-ACADEMIC COOPERATION …, priority 2017, published 2025).

Assays:
[1] = introduced into SVZ; Application No. 10-2017-0015676; cited from earlier work
NP-C mice [2] = assay: Survival rate of NP-C mice; format: in vivo; conditions: VEGFNP-C mice (brain cell-specific VEGF-overexpressed NP-C mice); cyclodextrin 4000 mg/kg once a week s.c.; compared to NP-C mice given cyclodextrin alone
Description: (§1) In Balb/C (Orient, wild type), NPC mutant mice in which an NPC1 gene is deleted (RIKEN, received from Japan, NP-C mice; a weight was smaller than that of normal mice with the same week old, a serious mobility loss was shown from 4 to 6 week old to show tremors and seizures of the limbs, and a lifespan was approximately 9 to 10 weeks), and brain cell-specific VEGF-overexpressed NP-C mice (VEGFNP-C mice; produced through mating of VEGFtg mice overexpressing VEGF in a brain cell-specific promoter (received from University of Heidelberg, Germany, Yaoming Wang et al., (2005)) and NP-C mice, a lifespan was approximately 9 to 10 weeks like the NP-C mice, and brain inflammation and lipid accumulation were alleviated as compared to the NP-C mice), systems thereof were kept by genotyping through PCR. The mice were disposed in a test group by using a block randomization method. In order to eliminate prejudice, […]. All mice tests were approved by Kyungpook National University Institutional Animal Care and Use Committee (IACUC).
(§2) Administration of cyclodextrin (Sigma, H107) and VEGF-overexpressed neural stem cells was performed on a schedule as illustrated in FIG. 1. Specifically, NP-C mice or VEGFNP-C mice were subcutaneously injected with cyclodextrin by 4000 mg/kg from 1 week old. […]

NP-C mice [3] = assay: Change in weight of NP-C mice; format: in vivo; conditions: VEGFNP-C mice; cyclodextrin 4000 mg/kg once a week s.c.; compared to NP-C mice given cyclodextrin alone
Description: as §1, §2

NP-C mice [4] = assay: Mobility by Rota-rod and Beam tests; format: in vivo; conditions: for each week age
Experimental: (§3) Administration of cyclodextrin (Sigma, H107) and VEGF-overexpressed neural stem cells was performed on a schedule as illustrated in FIG. 1. Specifically, NP-C mice or VEGFNP-C mice were subcutaneously injected with cyclodextrin by 4000 mg/kg from 1 week old. When the NP-C mice injected with the cyclodextrin were 4-week-old, a cannula was mounted in a subventricular zone (SVZ) for combined injection into the SVZ of the VEGF-overexpressed neural stem cells, and the VEGF-overexpressed neural stem cells (to 1×10^6 cell/3 ul) were injected into the SVZ twice a week. A cell injection rate was implanted at a flow rate of 0.3 μl/min.
In order to confirm the mobility of a mouse in each test group, Rota-rod and Beam tests were performed. In the Rota-rod test (Ugo Basile, Comerio, VA, Italy), a Rota-rod movement was performed three times or more at a rotation rate of 4 rpm using a machine equipped with a rod of a diameter of 3 cm which was appropriately processed for providing a grip, and then an endurance time of a test animal was measured in units of second and an average value thereof was recorded. […] In the Beam test, a mouse was placed on a starting point of a rod of a width of 6 mm or 12 mm and then a time taken to move to an end point was measured. […]

NP-C mice [5] = assay: Inflammatory response of the cortex by GFAP (astrocyte) staining; format: in vivo; conditions: 10-week-old
Experimental: as §3
(§4) The brain tissue (cortex or cerebellum) of a mouse was cut to a thickness of 50 μm using vibratome, and then cultured with anti-GFAP (rabbit, 1:500, DAKO) and anti-Calbindin (rabbit, 1:100, milipore). In addition, filipin staining (Polysciences, Inc.) was performed on tissues of each organ from the mouse to confirm the accumulation degree of cholesterol. Cortex, cerebellum, liver, lung, kidney, and spleen sites were analyzed using a laser scanning confocal microscope or an Olympus BX51 microscope equipped with Fluoview SV1000 imaging software (Olympus FV1000, Japan). A percentage of an area of a stained area to an area of total tissues was quantified using Metamorph software (Molecular Devices). […]

NP-C mice [6] = assay: Inflammatory response of the cerebellum by GFAP (astrocyte) staining; format: in vivo; conditions: 10-week-old
Experimental: as §3, §4

NP-C mice [7] = assay: Cerebellar neural cells by Calbindin staining (Purkinje neuron); format: in vivo; conditions: VEGFNP-C mice; 10-week-old
Experimental: as §3, §4

NP-C mice [8] = assay: Lipid accumulation (sphingosine, sphingomyelin) in cortex, cerebellum and organs, UPLC; format: in vivo; conditions: VEGFNP-C mice, 10-week-old
Experimental: as §3
The cortex, the cerebellum, and organs (liver, lung, kidney, spleen, etc.) of each mouse were extracted, added with a homogeneous buffer solution containing 50 mM HEPES (Invitrogen), a 150 mM sodium chloride solution (NaCl) (Sigma), 0.2% Igepal CA-630 (Sigma), and a protease inhibitor (Milipore), homogenized using a homogenizer, and then centrifuged at 13,000 rpm for 10 minutes. After 10 minutes, additional centrifugation was performed at 13,000 rpm for 30 minutes. […] A dry lipid extract obtained above was resuspended in 0.2% Igepal CA-630 (Sigma), and then the concentration of each lipid was measured using a UPLC system. […]

NP-C mice [9] = assay: Cholesterol accumulation by Amplex red assay and Filipin staining; format: in vivo; conditions: VEGFNP-C mice; 10-week-old; cortex, cerebellum and organs
Experimental: as §3, §4

Substance | medicinal effect by improvement of an SVZ environment [1] | survival rate (NP-C mice [2]) | weight (NP-C mice [3]) | mobility (Rota-rod and Beam tests) (NP-C mice [4]; NP-C mice) | mobility (Rota-rod and Beam tests) (NP-C mice [4]; VEGFNP-C mice) | inflammatory response (GFAP: astrocyte) in the cortex (NP-C mice [5]; NP-C mice) | inflammatory response (GFAP: astrocyte) in the cortex (NP-C mice [5]; VEGFNP-C mice) | inflammatory response (GFAP: astrocyte) in the cerebellum (NP-C mice [6]; NP-C mice) | inflammatory response (GFAP: astrocyte) in the cerebellum (NP-C mice [6]; VEGFNP-C mice) | reduced neural cells (Calbindin: Purkinje neuron) in the cerebellum (NP-C mice [7]) | sphingosine accumulated in the cortex and the cerebellum (NP-C mice [8]) | sphingomyelin accumulation (NP-C mice [8]; liver, lung, kidney, spleen, cortex and cerebellum) | accumulation of cholesterol (NP-C mice [9])
VEGF | could not be achieved | – | – | – | – | – | – | – | – | – | – | – | –
cyclodextrin | – | significantly increased | significantly increased | improved mobility compared to NP-C mice | most effective | somewhat alleviated | more effectively improved | alleviated to a certain level | more effectively alleviated | most efficiently increased | most effectively reduced | most effectively reduced | more reduced
